Here are results for 14 molecules from patent US20080125432A1 (Devgen NV, priority 2004, published 2008).

Where two headings read alike, the source gives them in different places.

What is called EC50 is the concentration that produces a half-maximal response. Broadly, the IC50 is the concentration needed to halve the response being measured.

Assay [1] concerns the target T1, human Kv4.3 (Homo sapiens, UniProt Q9UK17).
T1 construct: expressed in transfected cells; host or cells: transgenic C. elegans strain UG1755 (N2 injected with plasmid pGV8, integrated array)
T1 sequence (Q9UK17 1-655): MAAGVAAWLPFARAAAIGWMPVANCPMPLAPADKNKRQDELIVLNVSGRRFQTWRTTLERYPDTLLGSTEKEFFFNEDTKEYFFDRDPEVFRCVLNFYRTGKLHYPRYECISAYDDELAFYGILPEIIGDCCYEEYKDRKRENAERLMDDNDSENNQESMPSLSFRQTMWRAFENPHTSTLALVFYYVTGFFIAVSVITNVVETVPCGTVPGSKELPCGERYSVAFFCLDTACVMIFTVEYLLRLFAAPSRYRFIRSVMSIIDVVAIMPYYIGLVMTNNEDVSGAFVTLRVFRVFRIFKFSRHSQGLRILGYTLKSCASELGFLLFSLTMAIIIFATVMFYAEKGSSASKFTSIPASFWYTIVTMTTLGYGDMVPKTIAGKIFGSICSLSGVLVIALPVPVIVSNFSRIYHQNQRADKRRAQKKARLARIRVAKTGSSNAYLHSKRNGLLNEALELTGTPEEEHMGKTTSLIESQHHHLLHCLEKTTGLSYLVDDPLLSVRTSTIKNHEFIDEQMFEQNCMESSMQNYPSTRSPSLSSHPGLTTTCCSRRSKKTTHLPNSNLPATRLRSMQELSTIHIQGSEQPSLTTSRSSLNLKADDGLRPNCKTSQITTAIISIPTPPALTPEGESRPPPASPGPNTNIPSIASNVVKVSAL
As to the kind of experiment: Electropharyngeogram (EPG) recording on dissected pharynxes of transgenic C. elegans strain UG1755. The method, then: The method to describe the construction of a transgenic C. elegans strain expressing human Kv4.3 has been described in WO 03/097682. Briefly, the actual used strain UG1755 has been generated by microinjection into the gonad of a wild-type strain N2 with a mix of 5 ng/μl plasmid pGV8 (human Kv4.3), 20 ng/μl pDW2821 (GFP-marker) and 40 ng/ul genomic C. elegans DNA. Transgenic animals have been isolated and submitted to integration of the extra-chromosomal array into the genome of C. elegans. A line with 50% transmission of the functional expressed human Kv4.3 has been mutagenized with gamma irradiation using a Cobalt source. About 12000 F2 animals have been singled out and their progeny has been screened for the 100% transmission of the GFP marker. Lines with 100% transmission of GFP have been considered as potentially integrated. These lines have been further tested and out-crossed with N2 strain two-times. All lines obtained have been tested for viability, GFP and human Kv4.3 expression. At the end of a selection process, UG1755 was identified as most suitable C. elegans strain amenable to high throughput screening (HTS). […] Briefly, dissected pharynxes of UG1755 C. elegans animals have been prepared and Electropharyngeograms (EPGs) have been recorded using an Axopatch-1D amplifier (Axon instruments). […] The number of ultra short EPGs (10-20 ms) and normal EPGs (100-200 ms) has been analyzed and given as ratio in percentage. […] In addition, standard qRT-PCR confirmed the presence of the human Kv4.3 transgene in UG1755 as well as human Kv4.3 protein has been detected with the human Kv4.3 antibody P 0358 in the pharynx of UG1755 animals.
Introducing the human Kv4.3 channel into the C. elegans pharynx influences the C. elegans action potential in a characteristic fashion. […] The pumping end-point can be technically translated into a high-throughput read-out by the use of a pro-fluorescent dye. […] After a defined incubation period, the change of fluorescence intensity in the intestine can be measured with a plate reader.

Assay [2] concerns the target T1, human Kv4.3. The assay can be described thus: C. elegans based high-throughput screen for Kv4.3 modulators (pharynx pumping, Calcein AM uptake), transgenic strain UG1755. The class given is in vivo. Particulars: for Ratio N2/Kv4.3: EC50 on N2 divided by EC50 on the Kv4.3 expressing strain, cut-off 1.8; for EC50: transgenic strain UG1755 expressing human Kv4.3, read-out: EC50 (μM) Kv4.3 worm. The source says: A C. elegans based high-throughput screen for Kv4.3 modulators has been used to establish an in vivo SAR (structure-activity relationships: the effect of chemical structure on biological activity) on Kv4.3 for the compounds according to the present invention.
This assay has employed a stable transgenic C. elegans strain that functionally expressed human Kv4.3 in the pharynx and a visible selection GFP maker in body-wall muscle.
The pharynx is the feeding organ of C. elegans and contracts rhythmically 3-4 times per second. The pharynx contraction is controlled by the nervous system via action potentials similar to the human myocyte and can thus be used to study human ion channel physiology in vivo in C. elegans.
Introducing the human Kv4.3 channel into the C. elegans pharynx influences the C. elegans action potential in a characteristic fashion. The additional number of potassium channels increases potassium ion efflux, enhances re-polarization and thereby shortens the action potential duration. […] The shortened action potentials of the C. elegans pharynx resulting from expression of human Kv4.3, changes the pharynx contraction-relaxation cycle and consequently reduces the pumping/feeding in these transgenic animals. This change of pumping is an end-point amenable to high-throughput screening technology. The pumping end-point can be technically translated into a high-throughput read-out by the use of a pro-fluorescent dye. The pro-fluorescent dye is taken up by C. elegans depending on its pumping activity and converted into a fluorescent dye by enzymes located in its intestines. After a defined incubation period, the change of fluorescence intensity in the intestine can be measured with a plate reader.
(§1) The screening of the compounds according to the present invention has been performed in the C. elegans based high-throughput screen for Kv4.3 modulators described above. The method for testing the activity on human Kv4.3 of the compounds according to the invention with C. elegans strains expressing human Kv4.3 for their activity is the same as the method described in WO 03/097682. The method for testing the compounds on wild-type C. elegans strains not expressing human Kv4.3 is the same as the method described in WO 00/63427. Briefly, UG1755 animals have been grown in large numbers and staged young adults (no or only few eggs inside the uterus) have been harvested on the day of screening. Approximately 125 animals in 80 μl buffer have been dispensed per well of a “U shaped 96-well compound plate The compound plate contained already compound material at a final concentration of 30 μM in 0.3% DMSO. After one hour incubation 10 μl of the fluorescent label Calcein AM (CAM) have been added to achieve a final concentration of 5 μM CAM and 0.8% DMSO. After another four hours of incubation at 20° C., the drinking of C. elegans animals (or the “reaction 8 measured by the uptake of CAM) has been stopped by adding 10 μl of a 60 μM ivermectin solution. The fluorescence intensity (counts per second) has been measured 40 minutes after adding ivermectin with the Wallac plate reader at a wavelength of 535 nm (after excitation at 485 nm).
The active compounds have been identified and confirmed by dose-response analysis. An EC50 has been calculated and the results are listed under Table 3. Dose-response curves have been obtained at concentrations of 30 μM. EC50 has been calculated using XLfit 2.09 software package.

For assay [3], the target named is T2, human Kv4.3/KChIP2.2 potassium channel (Homo sapiens, UniProt Q9UK17).
T2 construct: expressed in transfected cells
T2 sequence (Q9UK17 1-655): T1 sequence (Q9UK17 1-655)
The assay can be described thus: Whole cell patch clamp, CHO-K1 cells stably expressing human Kv4.3/KChIP2.2. The class given is cell-based. The settings on record: Kv4.3 mediated current, charge; patch clamp; read-out: Kv4.3 charge IC50.

For assay [4], the system named is C. elegans wild-type strain N2. The assay can be described thus: Same C. elegans pumping assay format using wild-type strain N2. The class given is in vivo. The settings on record: read-out: EC50 (μM) Wild type worm N2.
Description: as §1
These compounds have been also tested in the same assay format using a C. elegans wild-type strain N2 and the corresponding EC50 has been calculated. The ratio of the EC50s obtained for a compound on the two strains (transgenic expressing human Kv4.3 and wild-type) gives an indication on whether said compound is acting on human Kv4.3. […]

As for `O=C(NCC1CCCCN1)c1cc(OCC(F)(F)F)ccc1OCC(F)(F)F` (centres unmarked) [Flecainide], the “ultra short action potentials of the human Kv4.3 transgenic C. elegans pharynx” value in assay [1] is on record as “restored to normal action potentials”. For the same molecule, the “After Application of Compound Ratio Ultra short to Normal EPGs in %” value in assay [1] (100 μM Flecainide, strain UG1755, n = 15, before application 83 ± 13) was 53 ± 24%.
As for `Cc1nc(Nc2ccc(Br)cc2)sc1C(=O)NCc1ccc([N+](=O)[O-])cc1` [Compound 23, 2-(4-bromo-phenylamino)-4-methyl-thiazole-5-carboxylic acid 4-nitro-benzylamide], in assay [2], the “Ratio N2/Kv4.3” value is listed as 2.8 and the EC50 was 14.6 µM. For the same molecule, the IC50 in assay [3] worked out at 550 nM. Also, the EC50 in assay [4] (Caenorhabditis elegans) was determined as 41 µM.
As to `O=C(N[C@@H]1CCC[C@H]1OCc1ccccc1)c1csc(Nc2ccc(F)cc2)n1` [Compound 37, 2-(4-fluoro-phenylamino)-thiazole-4-carboxylic acid (1R,2R)-2-(benzyloxycyclopent-1-yl) amide], in assay [2], the “Ratio N2/Kv4.3” value is 3.8 and the EC50 is 6 µM. Further, the EC50 in assay [4] (Caenorhabditis elegans) turned out to be 23 µM.
For `O=C(N[C@@H]1CCCC[C@H]1OCc1ccccc1)c1csc(Nc2ccc(F)cc2)n1` [Compound 38, 2-(4-fluoro-phenylamino)-thiazole-4-carboxylic acid (1R,2R)-2-(benzyloxycyclohex-1-yl) amide] the same measures were 2.5, 17.3 µM and 44 µM.
In the same order, the values of `Cc1nc(Nc2ccc(Br)cc2)sc1C(=O)NCc1cc(C(F)(F)F)cc(C(F)(F)F)c1` [Compound 24, 2-(4-bromo-phenylamino)-4-methyl-thiazole-5-carboxylic acid 3,5-bis-trifluoromethyl-benzylamide] are more than 1.7, 17.1 µM and more than 30 µM.
For `COC[C@H](Cc1ccccc1)NC(=O)c1csc(Nc2cc(C)cc(C)c2)n1` [Compound 44, 2-(3,5-dimethyl-phenylamino)-thiazole-4-carboxylic acid (S)-(1-methoxymethyl-2-phenyl-ethyl)-amide] the same measures were 3.5, 11.5 µM and 39.5 µM.
With `CCCN(Cc1ccc([N+](=O)[O-])cc1)C(=O)c1csc(Nc2ccc(Cl)cc2)n1` [Compound 42, 2-(4-chloro-phenylamino)-thiazole-4-carboxylic acid (4-nitro-benzyl)-propyl-amide], in assay [2], the “Ratio N2/Kv4.3” value is given as 2.0 and the EC50 was 21.4 µM. Also, the concentration for a half-maximal effect (EC50) in assay [4] (Caenorhabditis elegans) came to 43 µM.
`O=C(N[C@@H]1CCC[C@H]1OCc1ccccc1)c1csc(Nc2ccc(Cl)cc2)n1` [Compound 40, 2-(4-chloro-phenylamino)-thiazole-4-carboxylic acid (1R,2R)-2-(benzyloxycyclopent-1-yl) amide]: in assay [2], the “Ratio N2/Kv4.3” value is recorded as more than 2.5 and the EC50 was 12.1 µM. Further, the IC50 in assay [3] was 3460 nM. For the same molecule, in assay [4], the EC50 was more than 30 µM.
For the molecule `Nc1ccncc1` [4-aminopyridine], the “ultra short action potentials of the human Kv4.3 transgenic C. elegans pharynx” value in assay [1] is “restored to normal action potentials”.
Take `Cc1nc(Nc2ccc(Br)cc2)sc1C(=O)NCc1ccccc1` [Compound 20, 2-(4-bromo-phenylamino)-4-methyl-thiazole-5-carboxylic acid benzylamide]: in assay [2], the “Ratio N2/Kv4.3” value was more than 2.3 and the EC50 is 25 µM. Further, the IC50 in assay [3] came out at 1720 nM. Further, the EC50 in assay [4] (Caenorhabditis elegans) was more than 60 µM.
Take `C[C@@H](NC(=O)c1csc(Nc2ccc(F)cc2)n1)c1ccc([N+](=O)[O-])cc1` [Compound 36, 2-(4-fluoro-phenylamino)-thiazole-4-carboxylic acid (R)-1-(4-nitro-phenyl)ethyl amide]: in assay [2], the “Ratio N2/Kv4.3” value was 2.0 and the EC50 was 22.7 µM. In addition, the EC50 in assay [4] (Caenorhabditis elegans) is 45 µM.
In the same order, the values of `Cc1cc(C)cc(Nc2nc(C(=O)N[C@H]3CCCC[C@@H]3OCc3ccccc3)cs2)c1` [Compound 46, 2-(3,5-dimethyl-phenylamino)-thiazole-4-carboxylic acid (1S,2S)-2-(benzyloxycyclohex-1-yl) amide] are 2.8, 14 µM and 39 µM.
On to `O=C(N[C@@H]1CCC[C@H]1OCc1ccccc1)c1csc(Nc2ccccc2)n1` [Compound 48, 2-phenylaminothiazole-4-carboxylic acid (1R,2R)-2-(benzyloxycyclopent-1-yl) amide], for which the “Ratio N2/Kv4.3” value in assay [2] is 14.9. In addition, the EC50 in assay [2] is 2 µM; in assay [4] (Caenorhabditis elegans) it was 29.8 µM. Moreover, in assay [3], the IC50 is 2470 nM.
Turning to “2-(4-bromo-phenylamino)-4-methyl-thiazole-5-carboxylic acid (1R,2R)-2-(benzyloxycyclopent-1-yl) amide [Compound 25]”, the “Ratio N2/Kv4.3” value in assay [2] is reported as more than 25. For the same molecule, the figures for the EC50 in assay [2] and in assay [4] were 10.3 µM and more than 30 µM, respectively. In addition, the IC50 in assay [3] was 1320 nM.
